Data set [1] relates to Daudi lymphoma tumor model. The data set is described as follows: Pooled Daudi xenograft studies and assessment of synergistic activity (Example 5). Conditions: pooled studies; for Tumor response CR / Tumor response PR: number of mice, (n) in cell; for Tumor response RR: response rate; for TGI: vs. vehicle. The format is in vivo, BALB/c nude mice. Here is the method:
(§1) Passaged, clonally derived Daudi cells (5×10^6 cells/mouse) were reconstituted with 50% Matrigel (BD Biosciences) in a total volume of 0.1 ml and implanted subcutaneously into the right flank of irradiated (3Gy) BALB/c nude mice. Treatments were initiated when the mean tumor volume was 150-300 mm^3. Mice were randomly assigned typically into 10 mice per group. […] Tumor volume is measured using calipers. Caliper measurements of tumors were converted into tumor volume (mm^3) using the formula: ½ (length (mm)×[width (mm)]^2). Tumor growth inhibition (TGI) was calculated as [1−(mean tumor volume of treated group/mean tumor volume of control group)×100]. […] Tumor growth delay (TGD) analysis was calculated as: [(number of days for a treated group to reach a mean tumor volume of 1000 mm^3)−(number of days for the control group to reach a mean tumor volume of 1000 mm^3)]. Percent conditional survival is the percent of mice in each group in which the tumor volume has not reached 1000 mm^3.
(§2) Multiple comparisons were performed using one-way analysis of variance (ANOVA); post-test to compare different treatment means was done using Student-Newman Keuls test (SigmaStat). Tumor growth delay for each animal (time to 1000 mm^3) was used as the endpoint for conditional survival, and significance between treatments was analysed using a log rank test (Prism). Mice that had no visible tumors at necropsy upon termination of the study were considered censored in this analysis. Differences were considered statistically significant at p<0.05.
Several studies of these agents and combinations of these agents were performed in the Daudi lymphoma tumor model. The data from these multiple experiments were then pooled together for further analysis (Table 10). In vivo drug synergy was evaluated from the response index of combination treatments using multiple drug effect analyses.

Data set [2] relates to human B-cell lymphoma (Daudi) xenograft. The data set is described as follows: Daudi xenograft model: IL-2 with CHOP and individual CHOP constituents (Example 2). The format is in vivo, BALB/c nude mice. Conditions: for Median Tumor Growth delay / Response rate (CR/PR): CR / Response rate (CR/PR): PR: Table 9, n = 10-20 mice/group; for CR/PR on day 28: CR: number of mice with complete response; for CR/PR on day 28: PR: number of mice with partial response; for Group Mean Days of Delay to 1000 mm^3: vs. control group. Here is the method: as §1
Athymic nude BALB/c mice (10 mice/group) were acclimated and irradiated mice were implanted with Daudi cells as described above. Treatment started when tumors were approximately 140 mm^3. This was designated study day 1.
Treatment groups were as follows:
Doxorubicin (H, adriamycin), 3.3 mg/kg, i.v, day 1;
Vincristine (O), 0.5 mg/kg, i.v, day 1;
Prednisone (P), 0.2 mg/kg p.o, days 1-5;
Proleukin® (IL-2), 1 mg/kg; s.c., thrice weekly for 4 weeks, total 12 doses;
Proleukin® (IL-2)+individual chemotherapeutics (as dosed individually, started on day 1);
Proleukin® (IL-2)+CHOP (similar dosing regimens to single agents, started on day 1).

Data set [3] shares this test system. In words: Daudi xenograft model of human B-cell lymphoma: IL-2/CHOP/rituximab regimens (Example 1). The format is in vivo, BALB/c nude mice. The procedure:
as §1, §2
See, e.g., Hudson et al., Leukemia (1998) 12:2029-2033 for a description of the Daudi xenograft model. The Daudi/BALB/c nude model expresses high levels of CD20 and is associated with a less aggressive/low grade disease profile. Furthermore, NK cells cannot lyse Daudi tumor cells in the absence of activation by cytokines such as IL-2. See, e.g., Damle et al., J. Immunol. (1987) 138:1779-1785.
120 athymic nude BALB/c mice were acclimated for 1 week to the inoculation of Daudi human B-cell lines. Daudi cells (5×10^6 cells/mouse) were implanted s.c. (right flank) into irradiated young nude mice (3Gy for approximately 3.2 minutes) with 50% matrigel at a volume of 0.1 ml and grown as subcutaneous tumors until tumor volume reached 110 mm^3. This was designated study day 1.
Clinical observations were noted.

The conditions of data set [4]: mouse, in vivo.
Experimental: (§3) Proleukin® treatment (1 mg/kg; s.c., thrice weekly) commenced either concomitantly (on day 8) or one week later (day 15) for a total of 4 weeks. […] Tumor volumes and body weights were measured two times per week. Clinical observations were noted.
The nature of data set [5]: Body weight, clinical observations and tolerability in Daudi tumor-bearing mice. Conditions: Example 5.
Experimental: as §3

For the molecule `O=P1(N(CCCl)CCCl)NCCCO1` (stereo not drawn) [Cyclophosphamide, cyclophosphamide], in data set [1], the “Growth delay” value came to 1 days, the “Tumor response CR” value is listed as 0%; 0/0 (10), the “Tumor response PR” value was 0%; 0/0 (10) and the “Tumor response RR” value is recorded as 0%; 0/0 (10). For the same molecule, the TGI in data set [1] is 2%, p > 0.05. In data set [2], the “Median Tumor Growth delay” value turned out to be 1 days, the “Response rate (CR/PR): CR” value is recorded as 0/0, the “Response rate (CR/PR): PR” value is recorded as 0/0 and the “CR/PR on day 28: CR” value is 0/0. In data set [2], the “CR/PR on day 28: PR” value is given as 0/0 and the “Group Mean Days of Delay to 1000 mm^3” value was determined as 1 days.
Take `COc1cccc2c1C(=O)c1c(O)c3c(c(O)c1C2=O)C[C@@](O)(C(=O)CO)C[C@@H]3O[C@H]1C[C@H](N)[C@H](O)[C@H](C)O1` [Doxorubicin]: in data set [1], the “Growth delay” value came out at 2 days, the “Tumor response CR” value is listed as 0%; 0/0 (10), the “Tumor response PR” value was 0%; 0/0 (10) and the “Tumor response RR” value was 0%; 0/0 (10). Further, the TGI in data set [1] was 9%, p > 0.05. Besides, in data set [2], the “Median Tumor Growth delay” value came out at 2 days, the “Response rate (CR/PR): CR” value is on record as 0/0, the “Response rate (CR/PR): PR” value is recorded as 0/0 and the “CR/PR on day 28: CR” value was 0/0. In addition, in data set [2], the “CR/PR on day 28: PR” value was 0/0 and the “Group Mean Days of Delay to 1000 mm^3” value worked out at 2 days.
In the case of `C[C@]12C=CC(=O)C=C1CC[C@@H]1[C@@H]2C(=O)C[C@@]2(C)[C@H]1CC[C@]2(O)C(=O)CO` [Prednisone], in data set [1], the “Growth delay” value was 2 days, the “Tumor response CR” value was found to be 1, the “Tumor response PR” value is recorded as 0 and the “Tumor response RR” value is 10%. In addition, the TGI in data set [1] is 10%, p > 0.05. Besides, in data set [2], the “Median Tumor Growth delay” value is recorded as 2 days, the “Response rate (CR/PR): CR” value worked out at 1, the “Response rate (CR/PR): PR” value is listed as 0 and the “CR/PR on day 28: CR” value was 1. Also, in data set [2], the “CR/PR on day 28: PR” value stood at 0 and the “Group Mean Days of Delay to 1000 mm^3” value turned out to be 2 days.
As for `CC[C@]1(O)C[C@H]2CN(CCc3c([nH]c4ccccc34)[C@@](C(=O)OC)(c3cc4c(cc3OC)N(C=O)[C@H]3[C@@](O)(C(=O)OC)[C@H](OC(C)=O)[C@]5(CC)C=CCN6CC[C@]43[C@@H]65)C2)C1` [Vincristine], in data set [1], the “Growth delay” value was 12 days, the “Tumor response CR” value was 0%; 0/0 (10), the “Tumor response PR” value is reported as 0%; 0/0 (10) and the “Tumor response RR” value is 0%; 0/0 (10). In data set [2], the “Median Tumor Growth delay” value is recorded as 12 days, the “Response rate (CR/PR): CR” value is on record as 0/0, the “Response rate (CR/PR): PR” value is 0/0 and the “CR/PR on day 28: CR” value was 0/0. Further, in data set [2], the “CR/PR on day 28: PR” value is on record as 0/0 and the “Group Mean Days of Delay to 1000 mm^3” value came to 12 days.
Consider “des-alanyl-1, serine-125 human interleukin-2 [IL-2]”, for which, in data set [1], the “Growth delay” value is given as 2 days, the “Tumor response CR” value came to 2, the “Tumor response PR” value was 1 and the “Tumor response RR” value came to 5%. Further, in data set [3] (mouse, in vivo), the “CR/PR day 29: CR” value is listed as 0/0, the “CR/PR day 29: PR” value is 0/0, the “CR/PR day 164: CR” value was 1/0 and the “CR/PR day 164: PR” value was 1/0. In addition, in data set [3] (mouse, in vivo), the “tumor growth / efficacy in words” value is on record as “significantly inhibited tumor growth”. Moreover, the “median conditional survival (days to 1000 mm3)” value in data set [3] (time for tumor to reach 1000 mm3) is 25 days. Besides, the “TGI day 29” value in data set [3] (tumor growth inhibition vs. vehicle, day 29, n = 10) stood at 33.52%. In data set [2], the “Median Tumor Growth delay” value turned out to be 2 days, the “Response rate (CR/PR): CR” value is listed as 0/0, the “Response rate (CR/PR): PR” value is reported as 0/0 and the “CR/PR on day 28: CR” value is 0/0. Also, in data set [2], the “CR/PR on day 28: PR” value was 0/0 and the “Group Mean Days of Delay to 1000 mm^3” value worked out at 2 days. In data set [4], the “% max BW. change (day, range)” value is 12(+8 to +14) day 39% and the “Clinical Observation” value was “BAR”. Also, the tolerability entry in data set [5] is listed as “well-tolerated”.

The values are drawn from patent US20060251617A1, “Methods for treating lymphomas” (Chiron Corporation, priority 2005, published 2006).
